US11787796B2, “Plasma Kallikrein inhibitors and uses thereof” (Takeda Pharmaceutical Company Limited, priority 2019, dated 2023)

Target: human activated kallikrein enzyme (Homo sapiens (Human), UniProt P03952)
Test: Plasma kallikrein inhibition assay with fluorogenic peptide substrate, 500 pM activated kallikrein format
Format: biochemical
Details: 500 pM activated kallikrein; 300 uM Pro-Phe-Arg-7-amido-4-methylcoumarin substrate; 30 min preincubation, 10 min reaction at RT; read-out: Primary Dose Response Assay: Average EC50
In short: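 Human activated kallikrein (500 pM format) was preincubated 30 min at RT with inhibitor in 20 mM Tris pH 7.5, 150 mM NaCl, 1 mM EDTA, 0.1% PEG-400, 0.1% Triton X-100. Reactions then ran 10 min at RT with 300 uM Pro-Phe-Arg-AMC. Fluorescence was read at ex 380/em 460 nm.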

Sequence of human activated kallikrein enzyme (P03952 391-638): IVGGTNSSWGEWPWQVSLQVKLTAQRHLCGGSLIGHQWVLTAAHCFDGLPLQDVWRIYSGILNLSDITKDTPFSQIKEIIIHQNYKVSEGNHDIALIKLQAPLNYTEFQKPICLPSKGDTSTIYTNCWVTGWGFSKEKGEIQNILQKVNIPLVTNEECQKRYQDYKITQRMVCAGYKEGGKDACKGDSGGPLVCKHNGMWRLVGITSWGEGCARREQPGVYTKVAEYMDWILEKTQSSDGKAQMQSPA
Sequence of human activated kallikrein enzyme (P03952 20-390 partner): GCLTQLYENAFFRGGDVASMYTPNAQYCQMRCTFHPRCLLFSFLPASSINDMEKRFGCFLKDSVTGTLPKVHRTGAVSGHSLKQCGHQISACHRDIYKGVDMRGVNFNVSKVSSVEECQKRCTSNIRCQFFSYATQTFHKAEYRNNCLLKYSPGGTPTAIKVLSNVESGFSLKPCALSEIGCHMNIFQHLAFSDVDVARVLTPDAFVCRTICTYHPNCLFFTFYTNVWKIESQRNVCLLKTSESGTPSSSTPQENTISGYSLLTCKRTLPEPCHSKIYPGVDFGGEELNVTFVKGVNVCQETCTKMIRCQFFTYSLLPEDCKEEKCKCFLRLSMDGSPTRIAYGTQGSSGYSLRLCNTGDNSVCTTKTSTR

EC50 [nM]	SMILES
1 to 10	N#Cc1cc(C2CC2)cn2cc(Cn3cc(C(=O)NC4CCc5c4ccnc5N)nn3)nc12 (stereo not drawn) [Example I-14, N-(1-amino-6,7-dihydro-5H-cyclopenta[c]pyridin-5-yl)-1-((8-cyano-6-cyclopropylimidazo[1,2-a]pyridin-2-yl)methyl)-1H-1,2,3-triazole-4-carboxamide]
10 to 100	COc1ccc(-n2cnnn2)c(CNS(=O)(=O)c2cn(Cc3cn4cc(C5CC5)ccc4n3)nn2)c1F [Example I-40, 1-((6-cyclopropylimidazo[1,2-a]pyridin-2-yl)methyl)-N-(2-fluoro-3-methoxy-6-(1H-tetrazol-1-yl)benzyl)-1H-1,2,3-triazole-4-sulfonamide]
1 to 10	COc1ccc(F)c(CNC(=O)c2cn(Cc3cn4cc(C5CC5)cc(CC(C)(C)C#N)c4n3)nn2)c1F [Example I-12, 1-((8-(2-cyano-2-methylpropyl)-6-cyclopropylimidazo[1,2-a]pyridin-2-yl)methyl)-N-(2,6-difluoro-3-methoxybenzyl)-1H-1,2,3-triazole-4-carboxamide]
100 to 2000	O=C(NCCOc1cccc(Cl)c1)c1cnn(Cc2cn3cc(C4CC4)ccc3n2)c1 [Example I-129, N-(2-(3-chlorophenoxy)ethyl)-1-((6-cyclopropylimidazo[1,2-a]pyridin-2-yl)methyl)-1H-pyrazole-4-carboxamide]
> 7100	COc1ccnc(CNC(=O)c2cnc3n2C(c2cn4cc(C5CC5)ccc4n2)CC3)c1F (stereo not drawn) [Example I-6, 5-(6-cyclopropylimidazo[1,2-a]pyridin-2-yl)-N-((3-fluoro-4-methoxypyridin-2-yl)methyl)-6,7-dihydro-5H-pyrrolo[1,2-a]imidazole-3-carboxamide]
100 to 2000	O=C(NCc1nccc(Cl)n1)c1cn(Cc2cn3cc(C4CC4)ccc3n2)nn1 [Example I-145, N-((4-chloropyrimidin-2-yl)methyl)-1-((6-cyclopropylimidazo[1,2-a]pyridin-2-yl)methyl)-1H-1,2,3-triazole-4-carboxamide]
> 7100	O=C(NCc1cc(Cl)ccc1-c1nn[nH]n1)c1cnn(Cc2cn3cc(C4CC4)ccc3n2)c1 [Example I-117, N-(5-chloro-2-(2H-tetrazol-5-yl)benzyl)-1-((6-cyclopropylimidazo[1,2-a]pyridin-2-yl)methyl)-1H-pyrazole-4-carboxamide]
≤ 1	Cc1cc(C(=N)N)cc(C)c1CNC(=O)c1cnn(Cc2cn3cc(C4CC4)ccc3n2)c1 [Example I-103, N-(4-carbamimidoyl-2,6-dimethylbenzyl)-1-((6-cyclopropylimidazo[1,2-a]pyridin-2-yl)methyl)-1H-pyrazole-4-carboxamide]
100 to 2000	COc1ncc(C#N)c(CNC(=O)c2cn(Cc3cn4cc(C5CC5)ccc4n3)nn2)c1F [Example I-72, N-((5-cyano-3-fluoro-2-methoxypyridin-4-yl)methyl)-1-((6-cyclopropylimidazo[1,2-a]pyridin-2-yl)methyl)-1H-1,2,3-triazole-4-carboxamide]
1 to 10	COc1ccc(-n2cnnc2)c(CNC(=O)c2cn(Cc3cn4cc(C5CC5)ccc4n3)nn2)c1F [Example I-96, 1-((6-cyclopropylimidazo[1,2-a]pyridin-2-yl)methyl)-N-(2-fluoro-3-methoxy-6-(4H-1,2,4-triazol-4-yl)benzyl)-1H-1,2,3-triazole-4-carboxamide]
≤ 1	CCOC(=O)CCc1cc(C2CC2)cn2cc(Cn3cc(C(=O)NCc4c(-n5cnnn5)ccc(OC)c4F)nn3)nc12 [Example I-89, ethyl 3-(6-cyclopropyl-2-((4-((2-fluoro-3-methoxy-6-(1H-tetrazol-1-yl)benzyl)carbamoyl)-1H-1,2,3-triazol-1-yl)methyl)imidazo[1,2-a]pyridin-8-yl)propanoate]
1 to 10	COC(=O)c1ncc(-c2ccc(OC)c(F)c2CNC(=O)c2cn(Cc3cn4cc(C5CC5)ccc4n3)nn2)cn1 [Example I-75, Methyl 5-(2-((1-((6-cyclopropylimidazo[1,2-a]pyridin-2-yl)methyl)-1H-1,2,3-triazole-4-carboxamido)methyl)-3-fluoro-4-methoxyphenyl)pyrimidine-2-carboxylate]
2000 to 7100	O=C(NCc1cccc2ccc(Br)cc12)c1cnn(Cc2cn3cc(C4CC4)ccc3n2)c1 [Example I-133, N-((7-bromonaphthalen-1-yl)methyl)-1-((6-cyclopropylimidazo[1,2-a]pyridin-2-yl)methyl)-1H-pyrazole-4-carboxamide]
10 to 100	CCc1ccc(-n2cnnn2)c(CNC(=O)c2cn(Cc3cn4cc(C5CC5)ccc4n3)nn2)c1F [Example I-83, 1-((6-cyclopropylimidazo[1,2-a]pyridin-2-yl)methyl)-N-(3-ethyl-2-fluoro-6-(1H-tetrazol-1-yl)benzyl)-1H-1,2,3-triazole-4-carboxamide]
10 to 100	COc1ccc(-c2cn3ccccc3n2)c(CNC(=O)c2cn(Cc3cn4cc(C5CC5)ccc4n3)nn2)c1F [Example I-70, 1-((6-cyclopropylimidazo[1,2-a]pyridin-2-yl)methyl)-N-(2-fluoro-6-(imidazo[1,2-a]pyridin-2-yl)-3-methoxybenzyl)-1H-1,2,3-triazole-4-carboxamide]
≤ 1	COc1ccc(-n2cc(Cl)nn2)c(CNC(=O)c2cn(Cc3cn4cc(C5CC5)ccc4n3)nn2)c1F [Example I-1, N-(6-(4-chloro-1H-1,2,3-triazol-1-yl)-2-fluoro-3-methoxybenzyl)-1-((6-cyclopropylimidazo[1,2-a]pyridin-2-yl)methyl)-1H-1,2,3-triazole-4-carboxamide]
10 to 100	Cc1cc2[nH]cc(Cl)c2c(C)c1CNC(=O)c1cnn(Cc2cn3cc(C4CC4)ccc3n2)c1 [Example I-123, N-((3-chloro-4,6-dimethyl-1H-indol-5-yl)methyl)-1-((6-cyclopropylimidazo[1,2-a]pyridin-2-yl)methyl)-1H-pyrazole-4-carboxamide]
1 to 10	COc1ccc(S(=O)(=O)N2CCOCC2)c(CNC(=O)c2cn(Cc3cn4cc(C5CC5)ccc4n3)nn2)c1F [Example I-48, 1-((6-cyclopropylimidazo[1,2-a]pyridin-2-yl)methyl)-N-(2-fluoro-3-methoxy-6-(morpholinosulfonyl)benzyl)-1H-1,2,3-triazole-4-carboxamide]
100 to 2000	O=C(NCc1cccc(Cl)c1)c1cnn(Cc2cn3cc(C4CC4)ccc3n2)c1 [Example I-121, N-(3-chlorobenzyl)-1-((6-cyclopropylimidazo[1,2-a]pyridin-2-yl)methyl)-1H-pyrazole-4-carboxamide]
2000 to 7100	Nc1nnc(CNC(=O)c2cn(Cc3cn4cc(C5CC5)ccc4n3)nn2)o1 [Example I-19, N-((5-amino-1,3,4-oxadiazol-2-yl)methyl)-1-((6-cyclopropylimidazo[1,2-a]pyridin-2-yl)methyl)-1H-1,2,3-triazole-4-carboxamide]
100 to 2000	O=C(NCc1csc2ccc(Cl)cc12)c1cnn(Cc2cn3cc(C4CC4)ccc3n2)c1 [Example I-128, N-((5-chlorobenzo[b]thiophen-3-yl)methyl)-1-((6-cyclopropylimidazo[1,2-a]pyridin-2-yl)methyl)-1H-pyrazole-4-carboxamide]
1 to 10	COc1ccc(-n2cnnn2)c(CNS(=O)(=O)c2cnn(Cc3cn4cc(C5CC5)ccc4n3)c2)c1F [Example I-45, 1-((6-cyclopropylimidazo[1,2-a]pyridin-2-yl)methyl)-N-(2-fluoro-3-methoxy-6-(1H-tetrazol-1-yl)benzyl)-1H-pyrazole-4-sulfonamide]
1 to 10	COc1ccc(-n2cccn2)c(CNC(=O)c2cn(Cc3cn4cc(C5CC5)ccc4n3)nn2)c1F [Example I-95, 1-((6-cyclopropylimidazo[1,2-a]pyridin-2-yl)methyl)-N-(2-fluoro-3-methoxy-6-(1H-pyrazol-1-yl)benzyl)-1H-1,2,3-triazole-4-carboxamide]
≤ 1	Cc1cc2c(c(N)n1)CCC2NC(=O)c1cn(Cc2cn3cc(C4CC4)ccc3n2)nn1 (stereo not drawn) [Example I-16, N-(1-amino-3-methyl-6,7-dihydro-5H-cyclopenta[c]pyridin-5-yl)-1-((6-cyclopropylimidazo[1,2-a]pyridin-2-yl)methyl)-1H-1,2,3-triazole-4-carboxamide]
> 7100	COc1ccc(-n2cnnn2)c(CNC(=O)c2cncn2Cc2cn3cc(C4CC4)ccc3n2)c1F [Example I-59, 1-((6-cyclopropylimidazo[1,2-a]pyridin-2-yl)methyl)-N-(2-fluoro-3-methoxy-6-(1H-tetrazol-1-yl)benzyl)-1H-imidazole-5-carboxamide]
≤ 1	COc1ccc(-n2cnnn2)c(CNC(=O)c2cn(Cc3cn4cc(C5CC5)cc(C(F)(F)F)c4n3)nn2)c1F [Example I-93, 1-((6-cyclopropyl-8-(trifluoromethyl)imidazo[1,2-a]pyridin-2-yl)methyl)-N-(2-fluoro-3-methoxy-6-(1H-tetrazol-1-yl)benzyl)-1H-1,2,3-triazole-4-carboxamide]
1 to 10	Cc1[nH]nc2c1CC[C@H]2NC(=O)c1cn(Cc2cn3cc(C4CC4)ccc3n2)nn1 [Example I-154]
≤ 1	O=C(NCc1c(-n2cnnn2)ccc(Br)c1F)c1cn(Cc2cn3cc(C4CC4)ccc3n2)nn1 [Example I-90, N-(3-bromo-2-fluoro-6-(1H-tetrazol-1-yl)benzyl)-1-((6-cyclopropylimidazo[1,2-a]pyridin-2-yl)methyl)-1H-1,2,3-triazole-4-carboxamide]
2000 to 7100	NCc1ccc(CNS(=O)(=O)c2cnn(Cc3cn4cc(C5CC5)ccc4n3)c2)cc1 [Example I-33, N-(4-(aminomethyl)benzyl)-1-((6-cyclopropylimidazo[1,2-a]pyridin-2-yl)methyl)-1H-pyrazole-4-sulfonamide]
2000 to 7100	Nc1nnc(CNC(=O)c2cn(Cc3cn4cc(C5CC5)ccc4n3)nn2)s1 [Example I-20, N-((5-amino-1,3,4-thiadiazol-2-yl)methyl)-1-((6-cyclopropylimidazo[1,2-a]pyridin-2-yl)methyl)-1H-1,2,3-triazole-4-carboxamide]
